Counter-ions that a name gives are not always drawn.
Columns and labels:
[1] = Mass balance: excretion of total radioactivity in urine and feces; type: in vivo, human
Method: The urine samples were collected before orally administration and 0–2648 h after orally administration. […] In the process of collecting urine and feces samples of the six patients, because of the excretion particularity of the drug, the samples were not collected continuously every day, but once a week or every 10 days. In this case, the calculation of excretion rate during non-collected days was the multiplication of the first-day excretion rate after non-collected days by the number of non-collected days.
Levels of radioactivity in plasma, urine, and extracts of fecal samples were determined by mixing individual samples with 5 mL scintillation cocktail and determined by counting directly in a liquid scintillation counter (LSC). Blood, fecal homogenates, and post extraction solids were combusted with OX-501 Biological Sample Oxidizer, the ^14CO2 formed were trapped directly in 15 mL scintillation cocktail, followed by counting with LSC. Samples were assayed with a liquid scintillation counter for 5 min.

[2] = Metabolite radio-profiling (LC-RAM, LC-MS/MS) of plasma, urine and feces; type: in vivo, human
Method: An equal volume of 2, 4, 8, 12, 24, and 96 h plasma sample was pooled by time-point across subject 03 ~ 06, to give six pooled plasma samples for metabolite profiling. An appropriate volume (3x, v/v) of acetonitrile was added to a portion of the pooled plasma sample, followed by vortexing ca. 2 min. After storage in a refrigerator for ca. 30 min, the mixture was centrifuged at ca. 10000 g at 4 °C for 10 min. The supernatant was then separated from the PES, which was suspended with water, followed by addition of methanol (2x, v/v) twice. The three extracts were combined and evaporated to dryness under a nitrogen stream by an N-Evap evaporator at room temperature. The residues were reconstituted with an appropriate volume of methanol:water (1:1, v/v) and centrifuged at ca. 10000 g at 4 ℃ for 10 min. The supernatant was subjected to HPLC radio-profiling.
Four pooled human urine samples (subject 03 ~ 06) were pooled from 0 to 432 h based on equal volume ratios from the individual patients across time intervals. In addition, three pooled urine samples (0–48, 48–120 and 360–432 h) (subjects 03–06) were prepared by pooling human urine samples across subjects and time points. Portion of the pooled urine sample was evaporated to a small volume under a nitrogen stream and extracted with methanol (3x, v/v) followed by centrifuged at ca. 10000 g at 4 ℃ for 10 min. The supernatant was reconstituted with an appropriate volume of methanol:water (1:1, v/v) and centrifuged at ca. 10000 g at 4 ℃ for 10 min. The supernatant was subjected to HPLC radio-profiling.
Four human fecal samples (0–432 h) were prepared by pooling feces from individual subjects (Subjects 03–06). In addition, three pooled human fecal samples (0–48, 48–120 and 360–432 h) were prepared by pooling feces samples across subjects and time points. The pooled fecal homogenate was extracted with methanol (3x, v/v) and the mixture was vortexed, and centrifuged at ca. 10000 g at 4 ℃ for 10 min. The supernatant was then separated from the PES, which was suspended with water, followed by addition of methanol twice. The three extracts were combined and evaporated to dryness under a nitrogen stream by an N-Evap evaporator at room temperature. The residues were reconstituted with an appropriate volume of methanol:water (1:1, v/v) and centrifuged at ca. 10000 g at 4 ℃ for 10 min prior to analysis.
HPLC coupled with radioactivity monitor (LC-RAM) was used to isolate and quantitate [^14C] anlotinib and its metabolites. The plasma and fecal extracts as well as urine supernatants were subjected to HPLC separation, fractionation, and eluent collection. The radioactivity in each fraction was monitored by solid scintillation counting using a Packard TopCount® NXT™ Microplate Counter. The radio-profiles were then reconstructed using ARC® Convert software. The peak area of each radioactivity peak/region was integrated using ARC® Evaluation software, and the percent distribution of each peak/region was calculated (%TRA for plasma or %Dose for urine and feces).
Metabolites were characterized and/or identified by LC–MS/MS in conjunction with on-line radioactivity detection. Structures of metabolites were proposed by interpretation of the mass spectral fragmentation pattern, as well as chromatographic behaviors and metabolic pathways.

[3] = tested on: advanced refractory solid tumors; assay: Tumor response evaluation in patients with advanced refractory solid tumors; type: in vivo, human; conditions: six patients enrolled
[4] = tested on: human cytochrome P450 2C9; parameters: method as in PMID 29441353; conditions: in vitro; read-out: Half maximum inhibitory concentration; cited from earlier work
VEGFR2/KDR and VEGFR3 = tested on: VEGFR2/KDR and VEGFR3; parameters: method as in PMID 29454091; conditions: recombinant enzymes; cited from earlier work

COc1cc2c(Oc3ccc4[nH]c(C)cc4c3F)ccnc2cc1OCC1(N)CC1 [anlotinib, 1-[[4-(4-fluoro-2-methyl-1H-indol-5-yloxy)-6-methoxyquinolin-7-yl]oxy]methyl) cyclopropanamine dihydrochloride]
Recovery of radioactivity in feces, average ([1]; 0 ~ 2648 h, six patients): 48.52 % dose | Recovery of radioactivity in urine, average ([1]; 0 ~ 2648 h, six patients): 13.51 % dose | Total recovery rate of radioactivity (urine and feces), average ([1]; 0 ~ 2648 h, six patients): 62.03 % dose | Feces (% dose) ([1]; Subject 01, 0 ~ 2648 h): 50.73 % dose | Total recovery rate (% dose) ([1]; Subject 01, 0 ~ 2648 h): 66.24 % dose | Urine (% dose) ([1]; Subject 01, 0 ~ 2648 h): 15.51 % dose | Feces (% dose) ([1]; Subject 02, 0 ~ 2648 h): 42.51 % dose | Total recovery rate (% dose) ([1]; Subject 02, 0 ~ 2648 h): 60.96 % dose | Urine (% dose) ([1]; Subject 02, 0 ~ 2648 h): 18.45 % dose | Feces (% dose) ([1]; Subject 03, 0 ~ 2648 h): 38.93 % dose | Total recovery rate (% dose) ([1]; Subject 03, 0 ~ 2648 h): 50.92 % dose | Urine (% dose) ([1]; Subject 03, 0 ~ 2648 h): 11.99 % dose | Feces (% dose) ([1]; Subject 04, 0 ~ 2648 h): 56.80 % dose | Total recovery rate (% dose) ([1]; Subject 04, 0 ~ 2648 h): 69.09 % dose | Urine (% dose) ([1]; Subject 04, 0 ~ 2648 h): 12.29 % dose | Feces (% dose) ([1]; Subject 05, 0 ~ 2648 h): 59.44 % dose | Total recovery rate (% dose) ([1]; Subject 05, 0 ~ 2648 h): 71.86 % dose | Urine (% dose) ([1]; Subject 05, 0 ~ 2648 h): 12.42 % dose | Feces (% dose) ([1]; Subject 06, 0 ~ 2648 h): 42.69 % dose | Total recovery rate (% dose) ([1]; Subject 06, 0 ~ 2648 h): 53.08 % dose | Urine (% dose) ([1]; Subject 06, 0 ~ 2648 h): 10.39 % dose | Radioactive concentration in feces ([1]; after 404–432 h): 4876 DPM/ml | Radioactive concentration in urine ([1]; after 404–432 h): 279 DPM/ml | Drug-related component in feces, % of the dose ([2]; feces, pooled 0–432 h, subjects 03–06, single oral 14.15 mg/120 μCi): 5.64 % of the dose | Drug-related component in human plasma (radio-profile) ([2]; pooled plasma 2–96 h, subjects 03–06, listed as parent drug): major drug-related component | Drug-related component in urine, % of the dose ([2]; urine, pooled 0–432 h, subjects 03–06, single oral 14.15 mg/120 μCi): 0.73 % of the dose | Tumor response: partial response (PR) [3]: one | Tumor response: progressive disease (PD) [3]: one | IC50 [4]: 250 nM | Capability to inhibit VEGFR2/KDR and VEGFR3, times stronger compared with sorafenib (VEGFR2/KDR and VEGFR3): ~500 times | Capability to inhibit VEGFR2/KDR and VEGFR3, times stronger compared with sunitinib (VEGFR2/KDR and VEGFR3): approximately 20 times
